Measurements from patent US20080207450A1, “Method of Substantially Preventing or Inhibiting Summer Bentgrass Decline” (priority 2007, published 2008).

Test system: Creeping bentgrass
Test: Outdoor bentgrass bed exposed to elevated atmospheric carbon dioxide over summer; visual quality and root depth
Format: in vivo, Agrostis stolonifera
Settings: about 700 ppm carbon dioxide from daylight until dark, July and August
Method: In the fall, the inventors established an outdoor bed of bentgrass in Lincoln Parish, La. This region has an average daily high temperature in July and August of 93° F. (www.enlou.com/econ/lincoln_econ.htm). The bed of bentgrass established by the inventors was a randomized block comprising three varieties of Creeping bentgrass: Penn A1 (Agrostis stolonifera ‘Penn A-1’), Penn A2, (Agrostis stolonifera ‘Penn A-2’) and Penn A4 (Agrostis stolonifera ‘Penn A-4’). The bentgrass bed was maintained over the winter. During the following July and August, the inventors constructed a conduit system through which carbon dioxide was pumped over a portion of the bentgrass bed (test zone). The conduit system comprised a plurality of hollow PVC pipes, each pipe having an approximate length of 72 inches and an approximate diameter of ¾ of an inch. Several of the pipes were affixed to each other to form the perimeter of a support platform having a rectangular shape. The remaining pipes were arranged in a parallel fashion and affixed within the support platform. […] The carbon dioxide concentrations in both zones were monitored via a standard, commercially available gas analyzer. At the end of August, both the treated and non-treated areas of the bentgrass were assayed visually for quality and also measured for root-depth.

Q: For O=C=O [carbon dioxide], which “length of sample root” value (sample root from test zone, measured at end of August) is on record?
A: approximately 10.75 inches

Q: What about the “visual quality of bentgrass” value (test zone, Lincoln Parish, La., assayed at end of August, varieties Penn A1, A2, A4) of the same compound?
A: did not experience a loss in quality
